As a reminder, the pKi is −log10 of the Ki, conventionally taken in molar units. A low value points to a high Ki.

pKi: −log10 of the molar value.

The test addresses CB2 (cannabinoid receptor subtype 2) (Homo sapiens, UniProt P34972). Format: binding.

Chain of CB2 (cannabinoid receptor subtype 2) (P34972 whole entry): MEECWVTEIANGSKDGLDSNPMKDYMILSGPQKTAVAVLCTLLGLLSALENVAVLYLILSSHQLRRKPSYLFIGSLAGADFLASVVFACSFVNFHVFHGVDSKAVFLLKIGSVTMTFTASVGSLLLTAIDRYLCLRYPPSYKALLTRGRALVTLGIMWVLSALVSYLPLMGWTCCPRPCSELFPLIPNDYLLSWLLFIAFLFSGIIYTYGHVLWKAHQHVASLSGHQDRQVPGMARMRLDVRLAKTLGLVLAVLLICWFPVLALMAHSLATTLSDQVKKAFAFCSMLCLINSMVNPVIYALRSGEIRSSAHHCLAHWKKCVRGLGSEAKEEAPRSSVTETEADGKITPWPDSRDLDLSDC

For the compound `O=C1c2ccccc2NC(=N/N=C/c2c[nH]c3ccccc23)[C@@H]2CCCN12` [4h, (S,E)-11-[2-(3-indolylmethylene)hydrazono]-pyrrolo[2,1-c][1,4]benzodiazepine], the pKi is 5.33.
In the case of `O=C1c2ccccc2NC(=N/N=C/c2cccs2)[C@@H]2CCCN12` [4g, (S,E)-11-[2-(2-thiophenylmethylene)hydrazono]-pyrrolo[2,1-c][1,4]benzodiazepine], the negative logarithm of the Ki (pKi) was 6.31.

These data come from article PMC7992105 (Medicinal chemistry research : an international journal for …, 2020).
